This is an account of results in PMC10974579, “A Monocarbonyl Curcuminoid Derivative Inhibits the Activity of Human Glutathione Transferase A4-4 and Chemosensitizes Glioblastoma Cells to Temozolomide” (Pharmaceuticals, 2024).

One series deals with T1, hGSTA4-4 (Homo sapiens, UniProt O15217).
T1 sequence (O15217 1-222): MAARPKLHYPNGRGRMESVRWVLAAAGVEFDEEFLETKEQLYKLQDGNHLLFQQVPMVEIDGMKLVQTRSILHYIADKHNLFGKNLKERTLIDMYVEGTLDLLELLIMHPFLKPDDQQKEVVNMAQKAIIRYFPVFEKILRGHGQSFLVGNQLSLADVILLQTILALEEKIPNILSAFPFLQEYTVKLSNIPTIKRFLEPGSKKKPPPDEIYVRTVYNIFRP
The experiment in a line: hGSTA4-4 enzyme inhibition assay (CDNB-GSH conjugation, 340 nm). Conditions: for Enzyme Inhibition (%): hGSTA4-4, compound at 100 μM, mean of three experiments, 100 µM; for inhibition at 100 µM: read-out: Enzyme Inhibition (%), hGSTA4-4, compound at 100 μM, mean of three experiments.

Series [1] deals with U-251 MG cells. The experiment in a line: In vitro cytotoxicity, MTT assay, U-251 MG. Conditions: 48 h. It is filed as cell-based, human. On the procedure: (§1) U-251 and U-87 MG cells were grown in Dulbecco’s modified Eagle’s growth medium (pH 7.4) supplemented with 10% FBS, 100 U/mL penicillin, 2 mM glutamine, and 100 μg/mL streptomycin. Cell cultures were maintained in flasks and grown at 37 °C in a humidified atmosphere of 5% CO2. Subconfluent cells were detached using 0.05% (w/v) trypsin−0.25% (w/v) ethylenediaminetetraacetic acid solution at a subcultivation ratio of 1:2 to 1:5. […] Cells were seeded in 96-well plates (8 × 10^3 cells/well in 100 μL culture medium) and grown overnight at 37 °C in a 5% CO2 incubator. Exponentially growing cells were incubated for 48 h with various concentrations ranging between 10^−3 and 10^−8 M of each compound. The final DMSO concentration never exceeded 0.2%. The medium was then removed and replaced with 100 μL MTT solution (1 mg/mL). After 4 h incubation, the solution was aspirated, formazan crystals were solubilized in 100 μL DMSO, and the absorbance was recorded at 540 nm (Tecan well plate reader). The same procedure was followed for the TMZ sensitization experiments. […] Data were analyzed using the GraphPad Prism 5.0 software.
Background: Tetrazolium assays rely on reduction of a dye to a coloured formazan, in cell work by metabolically active cells.

A short description of series [2]: In vitro cytotoxicity, MTT assay, U-251 MG. It is filed as cell-based, human. The settings on record: human, U-251 MG cells, pH 7.4, U-251 MG cells. As for the experimental part:
as §1

For series [3], the system named is U-251 MG cells. Kind of series: TMZ sensitization experiment, MTT assay, U-251 MG. The series is classed as cell-based, human. On the procedure: as §1, with “Cell” for “U-251 and U-87 MG cells were grown in Dulbecco’s modified Eagle’s growth medium (pH 7.4) supplemented with 10% FBS, 100 U/mL penicillin, 2 mM glutamine, and 100 μg/mL streptomycin. Cell”, “CO2.” for “CO2. Subconfluent cells were detached using 0.05% (w/v) trypsin−0.25% (w/v) ethylenediaminetetraacetic acid solution at a subcultivation ratio of 1:2 to 1:5.”

Series [4] in a line: In vitro cytotoxicity, MTT assay, U-87 MG. Conditions: human, U-87 MG cells, pH 7.4, U-87 MG cells. The series is classed as cell-based, human. On the procedure:
as §1

Series [5] relates to U-87 MG cells. The experiment in a line: In vitro cytotoxicity, MTT assay, U-87 MG. The series is classed as cell-based, human. The settings on record: 48 h. On the procedure:
as §1

Another series addresses hGSTP1-1. Details: method as in PMID 36670925. The settings on record: cited from earlier work; for Ki: read-out: inhibition constant Ki.
In series [6] the test system is U-87 MG cells. Conditions: cited from earlier work.

The structures appear in SMILES notation. Read-outs that look alike come from different tables or passages of the source.

Procedure for hGSTA4-4: hGSTA4-4 activity was determined by monitoring (at 25 °C) the formation of the conjugate between CDNB and GSH at 340 nm (ε = 9600 L·mol^−1·cm^−1) for 120 s, as previously described [58]. One unit of enzyme activity is defined as the amount of enzyme that produces 1.0 μmol of product per minute under the assay conditions. The tested natural products and monocarbonyl curcumin derivatives were dissolved in DMSO (100 μΜ) and added to the assay mixture (the volume of DMSO was maintained at a 2% v/v final concentration). Initial velocities were determined in triplicates and were corrected for spontaneous reaction rates, when necessary. […] The IC50 values were determined from a graph of the remaining enzyme activity (%) against inhibitor concentration. The computer program GraphPad Prism version 8 (GraphPad Prism Software, Inc., Boston, MA, USA) was used for producing kinetic graphs and determining apparent kinetic parameters/constants and IC50 values.

A word on the inhibition: it is how much of the control response was suppressed. Consider `COc1cc2c(c(OC)c1OC)-c1ccc(OC)c(=O)cc1[C@@H](NC(C)=O)CC2` [Colchicine], for which, at hGSTA4-4, the “Enzyme Inhibition (%)” value turned out to be 17.1% and the inhibition at 100 µM amounted to 17%.
For `O=C(O)/C=C/c1ccc(O)cc1` [Coumaric Acid], at hGSTA4-4, the inhibition at 100 µM turned out to be 27.3%.
Same read-out and setting: in the case of `COc1cc(/C=C/C(=O)CC(=O)/C=C/c2ccc(O)c(OC)c2)ccc1O` [Curcumin] it was 80.9%; in that of `COc1ccc(/C=C2\CCC/C(=C\c3ccc(OC)cc3)C2=O)cc1` [DM46], 64.9%.
Turning to `COc1ccc(/C=C2\CCC/C(=C\c3ccc(OC)c(OC)c3)C2=O)cc1OC` [DM57], on hGSTA4-4, the inhibition at 100 µM was found to be 55.7%.
The same measure, in the same setting: in the case of `O=C1/C(=C/c2ccc(F)cc2)CCC/C1=C\c1ccc(F)cc1` [DM62] it was 74.9%; in that of `COc1ccc(/C=C/C(=O)/C=C/c2ccc(OC)c(OC)c2)cc1OC` [DM95], 54.8%.
With `O=C(/C=C/c1ccc(O)cc1)/C=C/c1ccc(O)cc1` [DM96], on hGSTA4-4, the “Enzyme Inhibition (%)” value amounted to 81.8% and the inhibition at 100 µM was more than 90%.
In general, IC50 refers to the concentration needed to halve the response being measured. Consider `COc1cc(/C=C2\CCC/C(=C\c3ccc(O)c(OC)c3)C2=O)ccc1O` [DM100], for which, at hGSTA4-4, the IC50 turned out to be 16.9 ± 0.4 µM, the “Enzyme Inhibition (%)” value amounted to 95.1% and the inhibition at 100 µM is more than 90%.
For `COc1cc(/C=C/C(=O)/C=C/c2ccc(O)c(OC)c2)ccc1O` [DM101] the same measures were 12.7 ± 1.1 µM, 94.1% and more than 90%.
As to `O=C(/C=C/c1ccc(F)cc1)/C=C/c1ccc(F)cc1` [DM109], the inhibition at 100 µM at hGSTA4-4 was determined as 73.9%.
Regarding `O=C(/C=C/c1ccc(O)c(O)c1)/C=C/c1ccc(O)c(O)c1` [DM148], the IC50 in the series with U-251 MG cells [1] is 89.2 ± 3.41 µM; with U-87 MG cells [5] it was 91.1 ± 5.64 µM. Also, the IC50 at 48 h amounted to 89.2 µM in series [2] and 91.1 µM in series [4]. In addition, the cell survival with U-251 MG cells [3] (48 h, compound alone at 10 μM) is given as more than 85%. The “change of cell survival in combination with TMZ” value in the series with U-251 MG cells [3] (compound 10 μM + TMZ 150 μM, added together or 3 or 6 h pre-incubation, 48 h) was “did not result in any dramatic changes”. For the same compound, the inhibition at 100 µM at hGSTA4-4 was 4.6%.
For orientation: Ki means a measure of affinity in units of concentration, obtained from inhibition or displacement. On to `O=C1/C(=C/c2ccc(O)c(O)c2)CCC/C1=C\c1ccc(O)c(O)c1` [DM151], for which the values for the IC50 in the series with U-251 MG cells [1] and in the series with U-87 MG cells [5] were 25.6 ± 4.83 µM and 18.9 ± 5.81 µM, respectively. Also, the IC50 at 48 h in series [2] was 25.5 µM; in series [4], 18.9 µM. Besides, the “cell survival in combination with TMZ” value in the series on U-251 MG cells [3] (3 h pretreatment with compound 10 μM, then TMZ 150 μM 48 h) is 45%; in the series with U-251 MG cells [3] (6 h pretreatment with compound 10 μM, then TMZ 150 μM 48 h) it was “approximately 35%”; with U-251 MG cells [3] (compound 10 μM + TMZ 150 μM added together, 48 h), 55%. The cell survival in the series with U-251 MG cells [3] (48 h, compound alone at 10 μM) is recorded as more than 85%. The Ki on hGSTP1-1 (hGSTP1-1, CDNB substrate) is 9.55 µM; on hGSTP1-1 (hGSTP1-1, variable substrate GSH), 5.79 µM. Moreover, the type of inhibition result with hGSTP1-1 (hGSTP1-1, both GSH and CDNB substrates) is reported as “purely non-competitive”.
For `O=c1oc2c(O)c(O)cc3c(=O)oc4c(O)c(O)cc1c4c23` [Ellagic acid, Ellagic Acid], on hGSTA4-4, the IC50 amounted to 0.44 ± 0.01 µM, the “Enzyme Inhibition (%)” value was 95.1% and the inhibition at 100 µM is 95%. For the same compound, in the series on U-87 MG cells [6] (48 h treatment, read-out: IC50 (cytotoxicity)), the IC50 was 91.2 µM.
For `O=C(O[C@@H]1Cc2c(O)cc(O)cc2O[C@@H]1c1cc(O)c(O)c(O)c1)c1cc(O)c(O)c(O)c1` [Epigallocatechin gallate], the inhibition at 100 µM on hGSTA4-4 stood at 86.4%.
The same measure, in the same setting: next, `O=C(O)c1cc(O)c(O)c(O)c1` [Gallic acid]: 20.8%; `O=C1C[C@@H](c2ccc(O)cc2)Oc2cc(O)cc(O)c21` [Naringenin]: 28.5%; `OC[C@H]1O[C@@H](Oc2cc(O)cc(/C=C/c3ccc(O)cc3)c2)[C@H](O)[C@@H](O)[C@@H]1O` [Polydatin]: 32.3%.
On the same count and under the same terms, in the case of `O=c1c(O)c(-c2ccc(O)c(O)c2)oc2cc(O)cc(O)c12` [Quercetin] it was 84.7%.
Consider `Oc1ccc(/C=C/c2cc(O)cc(O)c2)cc1` [Resveratrol], for which, on hGSTA4-4, the “Enzyme Inhibition (%)” value is given as 8.87% and the inhibition at 100 µM was found to be 8.9%.
As to `CC1=C(C=O)C(C)(C)CC=C1` [Safranal], at hGSTA4-4, the inhibition at 100 µM came to 21.8%.
Take `Cn1nnc2c(C(N)=O)ncn2c1=O` [TMZ, temozolomide]: the cell survival with U-251 MG cells [3] (48 h, TMZ alone at 150 μM) is more than 85%. Also, the IC50 with U-87 MG cells [6] (48 h, interquartile range, read-out: IQR of IC50) was 92 to 590 µM; in the series on U-87 MG cells [6] (48 h, read-out: median IC50), 223 µM.
On to `O=C1c2c(O)cc(O)cc2O[C@H](c2ccc(O)c(O)c2)[C@H]1O` [Taxifolin hydrate], for which, on hGSTA4-4, the “Enzyme Inhibition (%)” value came out at 40.37% and the inhibition at 100 µM came out at 40%.
